Experimental findings from ChEMBL document CHEMBL1156528, “Acetyl-lysine analog peptides as mechanistic probes of protein deacetylases” (J Biol Chem, 2007) are described below.

The test addresses NAD-dependent protein deacetylase HST2 (Saccharomyces cerevisiae S288c) (UniProt P53686). Put plainly: Ratio of Vmax to Km for Saccharomyces cerevisiae Hst2.

The structures appear in SMILES notation.

Chain of NAD-dependent protein deacetylase HST2 (Saccharomyces cerevisiae S288c) (P53686 whole entry): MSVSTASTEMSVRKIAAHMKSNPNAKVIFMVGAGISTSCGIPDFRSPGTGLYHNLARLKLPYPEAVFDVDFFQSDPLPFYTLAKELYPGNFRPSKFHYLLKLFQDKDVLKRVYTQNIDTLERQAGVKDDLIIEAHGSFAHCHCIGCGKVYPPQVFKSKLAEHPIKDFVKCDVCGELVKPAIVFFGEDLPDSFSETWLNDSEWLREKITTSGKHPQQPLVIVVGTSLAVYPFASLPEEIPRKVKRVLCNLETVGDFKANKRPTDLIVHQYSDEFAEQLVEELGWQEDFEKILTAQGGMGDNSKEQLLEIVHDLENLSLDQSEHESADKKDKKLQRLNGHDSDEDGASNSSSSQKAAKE

Regarding `C[C@H](NC(=O)[C@H](CCCCNC(N)=O)NC(=O)CNC(=O)CNC(=O)[C@@H](NC(=O)[C@H](CO)NC(=O)[C@@H](N)CCCCN)[C@@H](C)O)C(=O)N1CCC[C@H]1C(=O)N[C@@H](CCCNC(=N)N)C(=O)N[C@@H](CCCCN)C(=O)N[C@@H](CCC(N)=O)C(=O)O`, the Ratio was 7.4 ×10³ /M/s.
